Measurements reported in the supplement of paper PMC11061612.

Assays:
[1] = test system: A375 (Melanoma); assay: Bliss excess, mean over the matrix (fraction); higher = more synergy
In short: (§1)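 Bliss excess equals the observed combination effect minus the expected value EA + EB − EA·EB, where EA and EB are the effects of each agent alone. Combination Emax is the second-highest inhibition within the matrix. Inhibition was scaled from CellTiter-Glo 2.0 luminescence, with 0 set by vehicle wells and 1 by blank wells, after 72 hours of two-drug dosing of cells plated in 1536-well plates.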

[2] = test system: HT-1197 (Bladder Carcinoma); assay: as above
In short: as §1

[3] = test system: MRK-nu-1 (Breast Carcinoma); assay: as above
In short: as §1

[4] = test system: NCI-H2023 (Non-Small Cell Lung Carcinoma); assay: as above
In short: as §1

[5] = test system: NCI-H2452 (Mesothelioma); assay: as above
In short: as §1

[6] = test system: RPMI-8402 (T-Lymphoblastic Leukemia); assay: as above
In short: as §1

[7] = test system: SBC-5 (Small Cell Lung Carcinoma); assay: as above
In short: as §1

[8] = test system: SCC90 (Head and Neck Carcinoma); assay: as above
In short: as §1

[9] = test system: BT-474 (Breast Carcinoma); assay: combination Emax (second highest fraction inhibited in the dose matrix, 72 h); higher = more inhibition; extreme values may be limits of the assay
In short: as §1

[10] = test system: GCIY (Gastric Carcinoma); assay: as above
In short: as §1

[11] = test system: NCI-H1048 (Small Cell Lung Carcinoma); assay: as above
In short: as §1

[12] = test system: NCI-H1944 (Lung Adenocarcinoma); assay: as above
In short: as §1

[13] = test system: NCI-H2023 (Non-Small Cell Lung Carcinoma); assay: as above
In short: as §1

[14] = test system: NTERA-2-cl-D1 (Other Solid Carcinomas); assay: as above
In short: as §1

[15] = test system: OVKATE (Ovarian Carcinoma); assay: as above
In short: as §1

[16] = test system: RS4-11 (B-Lymphoblastic Leukemia); assay: as above
In short: as §1

[17] = test system: SBC-3 (Small Cell Lung Carcinoma); assay: as above
In short: as §1

[18] = test system: SUP-HD1 (Hodgkin's Lymphoma); assay: as above
In short: as §1

[19] = test system: SW1463 (Colorectal Carcinoma); assay: as above
In short: as §1

[20] = test system: TK (B-Cell Non-Hodgkin's Lymphoma); assay: as above
In short: as §1

SMILES	Bliss excess [1]	Bliss excess [2]	Bliss excess [3]	Bliss excess [4]	Bliss excess [5]	Bliss excess [6]	Bliss excess [7]	Bliss excess [8]	combination Emax [9]	combination Emax [10]	combination Emax [11]	combination Emax [12]	combination Emax [13]	combination Emax [14]	combination Emax [15]	combination Emax [16]	combination Emax [17]	combination Emax [18]	combination Emax [19]	combination Emax [20]
COc1nnc2ccc(N3CCC(c4ccc(OCCN5CCN(C)C(=O)[C@H]5C)cc4)CC3)nn12 [AZD5153] + CCN(CCO)CCCOc1ccc2c(Nc3cc(CC(=O)Nc4cccc(F)c4)[nH]n3)ncnc2c1 [AZD2811] (first compound max 1 µM, 7x7, partner max 1 µM)	-0.0295	-0.0034	0.0096	-0.0248	-0.0574	-0.031	-0.0286	-0.0547	0.368	0.63	0.514	0.711	0.422	0.68	0.263	0.977	0.781	0.704	0.563	0.371
COc1cccc(OCCCN)c1-c1cc(Nc2cnc(C#N)cn2)n[nH]1 [Prexasertib] + Cc1cc2ncnn2cc1Nc1ncc2c(n1)n(C1CCOCC1)c(=O)n2C [AZD7648] (first compound max 1 µM, 7x7, partner max 10 µM)	0.0029	-0.0206	-0.0258	-0.027	-0.0623	-0.0127	-0.0116	-0.036	0.222	0.879	0.735	0.806	0.801	0.345	0.294	1	0.755	0.89	0.704	0.872
COc1cccc(OCCCN)c1-c1cc(Nc2cnc(C#N)cn2)n[nH]1 [Prexasertib] + C=CCn1c(=O)c2cnc(Nc3ccc(N4CCN(C)CC4)cc3)nc2n1-c1cccc(C(C)(C)O)n1 [AZD1775] (first compound max 1 µM, partner max 1 µM)	0.0888	-0.0589	0.211	0.0205	0.0473	0.0389	0.0356	0.0902	0.234	0.911	0.955	0.815	0.853	0.916	0.371	1	0.923	0.906	0.795	0.882
NC1(C(=O)N[C@@H](CCO)c2ccc(Cl)cc2)CCN(c2ncnc3[nH]ccc23)CC1 [Capivasertib] + COc1nnc2ccc(N3CCC(c4ccc(OCCN5CCN(C)C(=O)[C@H]5C)cc4)CC3)nn12 [AZD5153] (first compound max 10 µM, 7x7, partner max 1 µM)	0.009	0.0255	0.0058	0.0221	-0.0192	-0.0484	0.0351	0.0079	0.416	0.735	0.71	0.842	0.362	0.564	0.284	0.867	0.744	0.857	0.521	0.387
COc1nnc2ccc(N3CCC(c4ccc(OCCN5CCN(C)C(=O)[C@H]5C)cc4)CC3)nn12 [AZD5153] + Cc1c2c(nn1C)CSCc1cc(n(C)n1)CSc1cc(c3ccccc3c1)OCCCc1c(C(=O)O)n(C)c3c-2c(Cl)ccc13 [AZD5991] (first compound max 1 µM, 7x7, partner max 1 µM)	-0.0215	0.0698	0.0346	-0.0217	-0.0265	0.0279	-0.0062	0.0814	0.912	0.538	0.627	0.594	0.47	0.97	0.333	0.937	0.753	0.946	0.581	0.677
CN(CCO)CC[C@H](CSc1ccccc1)Nc1ccc(S(=O)(=O)NC(=O)c2ccc(N3CCC([C@@H](O)c4ccccc4-c4ccc(Cl)cc4)CC3)cc2)cc1S(=O)(=O)C(F)(F)F [AZD4320] + C1CN(CCC1(C(=O)N[C@@H](CCO)C2=CC=C(C=C2)Cl)N)C3=NC=NC4=C3C=CN4 [Capivasertib] (first compound max 1 µM, 7x7, partner max 3 µM)	-0.0414	0.0311	-0.0681	-0.103	-0.0757	0.0394	-0.0207	-0.0306	0.254	0.576	0.86	0.373	0.264	0.409	0.24	1	0.246	0.959	0.271	0.97
CC(=O)c1c(C)c2cnc(Nc3ccc(N4CCNCC4)cn3)nc2n(C2CCCC2)c1=O [Palbociclib] + CC1(C)CCC(CN2CCN(c3ccc(C(=O)NS(=O)(=O)c4ccc(NCC5CCOCC5)c([N+](=O)[O-])c4)c(Oc4cnc5[nH]ccc5c4)c3)CC2)=C(c2ccc(Cl)cc2)C1 [Venetoclax] (first compound max 10 µM, 7x7, partner max 1 µM)	-0.0197	-0.042	-0.0262	-0.0067	-0.0188	-0.0777	0.0178	-0.0435	0.0591	0.17	0.287	0.523	0.348	0.134	0.12	1	0.613	0.758	0.603	0.975
Cc1c2c(nn1C)CSCc1cc(n(C)n1)CSc1cc(c3ccccc3c1)OCCCc1c(C(=O)O)n(C)c3c-2c(Cl)ccc13 [AZD5991] + CCN(CCO)CCCOc1ccc2c(Nc3cc(CC(=O)Nc4cccc(F)c4)[nH]n3)ncnc2c1 [AZD2811] (first compound max 1 µM, 7x7, partner max 1 µM)	0.0227	-0.0381	0.0321	0.0307	-0.0486	0.0412	0.0523	0.081	0.442	0.449	1	0.35	0.333	0.821	0.253	0.991	0.531	0.787	0.268	0.289
Cc1c2c(nn1C)CSCc1cc(n(C)n1)CSc1cc(c3ccccc3c1)OCCCc1c(C(=O)O)n(C)c3c-2c(Cl)ccc13 [AZD5991] + C[C@@H](Nc1cc(F)cc(F)c1)c1cc(C(=O)N(C)C)cc2c(=O)cc(N3CCOCC3)oc12 [AZD8186] (first compound max 1 µM, 7x7, partner max 3 µM)	-0.0124	-0.0055	0.0152	-0.0253	0.0441	0.0272	0.0033	0.0186	0.594	0.565	0.965	0.282	0.377	0.682	0.353	0.591	0.376	0.659	0.188	0.112
C=CCn1c(=O)c2cnc(Nc3ccc(N4CCN(C)CC4)cc3)nc2n1-c1cccc(C(C)(C)O)n1 [AZD1775] + C[C@@H]1COCCN1C2=NC(=NC(=C2)C3(CC3)[S@](=N)(=O)C)C4=C5C=CNC5=NC=C4 [AZD6738] (first compound max 1 µM, partner max 10 µM)	0.0154	-0.0057	0.0633	-0.0674	-0.0518	0.0379	0.0037	0.0167	0.316	0.947	0.886	0.852	0.885	0.943	0.422	0.994	0.889	0.887	0.822	0.94
COc1cccc(OCCCN)c1-c1cc(Nc2cnc(C#N)cn2)n[nH]1 [Prexasertib] + C[C@@H]1COCCN1C2=NC(=NC(=C2)C3(CC3)[S@](=N)(=O)C)C4=C5C=CNC5=NC=C4 [AZD6738] (first compound max 1 µM, 7x7, partner max 10 µM)	0.0067	0.0065	-0.0703	0.0108	-0.0061	0.001	-0.0272	-0.0457	0.133	0.911	0.694	0.789	0.81	0.596	0.337	1	0.762	0.903	0.704	0.901
CC1(C)CCC(CN2CCN(c3ccc(C(=O)NS(=O)(=O)c4ccc(NCC5CCOCC5)c([N+](=O)[O-])c4)c(Oc4cnc5[nH]ccc5c4)c3)CC2)=C(c2ccc(Cl)cc2)C1 [Venetoclax] + C[C@@H]1COCCN1C2=NC(=NC(=C2)C3(CC3)[S@](=N)(=O)C)C4=C5C=CNC5=NC=C4 [AZD6738] (first compound max 1 µM, 7x7, partner max 10 µM)	-0.0308	-0.0033	-0.0003	-0.0671	-0.0034	0.0103	-0.0486	-0.014	0.206	0.879	0.7	0.892	0.729	0.881	0.407	1	0.926	0.911	0.411	1
Cn1cnc2c(F)c(Nc3ccc(Br)cc3Cl)c(C(=O)NOCCO)cc21 [Selumetinib] + C=CCn1c(=O)c2cnc(Nc3ccc(N4CCN(C)CC4)cc3)nc2n1-c1cccc(C(C)(C)O)n1 [AZD1775] (first compound max 10 µM, partner max 1 µM)	-0.0187	0.0032	-0.0289	-0.0578	-0.0288	-0.0344	-0.022	-0.0036	0.346	0.475	0.862	0.706	0.281	0.271	0.173	0.979	0.269	0.727	0.665	0.93
